Results from US20250304551A1 (SHANGHAI APEIRON THERAPEUTICS COMPANY LIMITED, priority 2022, published 2025).

Assays:
[1] = test system: OVCAR3 cells; assay: Cell proliferation activity test, OVCAR3 (CyQUANT Direct); type: cell-based; conditions: Homo sapiens, OVCAR-3, 72 h, 3 days incubation, CyQUANT fluorescence detection, read-out: OVCAR-3 Cell Viability_IC50_nM
Description: Materials and Cells: OVCAR3 cells were purchased from Nanjing Cobioer Biosciences Co., Ltd. RPMI-1640 medium, fetal bovine serum, and the CyQUANT Direct Cell Proliferation Assay kit were purchased from Thermo Fisher Scientific, USA; 96-well cell culture plates were sourced from Corning, USA.
Cell Culture: Culture OVCAR3 cells with RPMI-1640 medium containing […] and incubate them in a […] incubator at 37° C. Only cells in the logarithmic growth phase can be used for the test.
Inoculate OVCAR3 cells into a 96-well cell culture plate at 90 μL per well and incubate overnight in a […] incubator at 37° C. Dissolve the compound powder in DMSO to prepare a stock solution of 10 mM. Then perform gradient dilution for the compounds in the microplate to achieve a final concentration of 0-10 μM. Add 10 μL of cell culture medium containing compounds to each well to make the final DMSO content 0.20%. Incubate the cell plates in a […] incubator at 37° C. for 3 days. Add 100 μL of CyQUANT detection reagent to each well, react at 37° C. for 60 min, and perform fluorescence detection using the PerkinElmer Envision.

[2] = target: T1, Human KIF18A (amino acid sequence 1-417) (Homo sapiens, UniProt Q8NI77); assay: Enzyme activity detection experiment (ADP-Glo, KIF18A with tubulin and ATP); type: biochemical; conditions: tubulin 60 μg/mL, ATP 25 μM, KIF18A protein 2.5 nM, 120 minutes at ambient temperature, ADP-Glo chemiluminescence
T1 construct: purchased Viva Biotech (Shanghai) Ltd
T1 sequence (Q8NI77 1-417): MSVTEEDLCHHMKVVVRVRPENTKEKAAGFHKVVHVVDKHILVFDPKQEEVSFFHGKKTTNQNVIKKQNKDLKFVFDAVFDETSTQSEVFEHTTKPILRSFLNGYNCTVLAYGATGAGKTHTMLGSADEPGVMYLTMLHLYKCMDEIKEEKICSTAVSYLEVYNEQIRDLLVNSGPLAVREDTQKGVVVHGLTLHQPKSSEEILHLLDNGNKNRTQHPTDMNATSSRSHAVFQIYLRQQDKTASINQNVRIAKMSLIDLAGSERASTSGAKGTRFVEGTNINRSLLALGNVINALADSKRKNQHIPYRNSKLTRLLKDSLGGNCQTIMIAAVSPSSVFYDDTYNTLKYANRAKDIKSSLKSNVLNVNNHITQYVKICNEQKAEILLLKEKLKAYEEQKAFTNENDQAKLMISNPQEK
T1 sequence (Q2XVP4 whole entry partner): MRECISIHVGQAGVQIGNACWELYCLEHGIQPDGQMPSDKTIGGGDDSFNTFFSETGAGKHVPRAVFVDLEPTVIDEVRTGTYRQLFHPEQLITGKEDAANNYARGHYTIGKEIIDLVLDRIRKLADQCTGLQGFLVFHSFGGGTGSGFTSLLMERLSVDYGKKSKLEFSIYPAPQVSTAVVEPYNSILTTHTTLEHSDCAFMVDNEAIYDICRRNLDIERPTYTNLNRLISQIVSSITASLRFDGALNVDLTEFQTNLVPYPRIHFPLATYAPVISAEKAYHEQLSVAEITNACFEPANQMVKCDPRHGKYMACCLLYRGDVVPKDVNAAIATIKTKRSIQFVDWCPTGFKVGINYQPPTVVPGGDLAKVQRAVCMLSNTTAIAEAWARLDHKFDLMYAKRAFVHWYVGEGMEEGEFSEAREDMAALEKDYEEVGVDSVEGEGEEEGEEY
T1 sequence (P02554 whole entry partner): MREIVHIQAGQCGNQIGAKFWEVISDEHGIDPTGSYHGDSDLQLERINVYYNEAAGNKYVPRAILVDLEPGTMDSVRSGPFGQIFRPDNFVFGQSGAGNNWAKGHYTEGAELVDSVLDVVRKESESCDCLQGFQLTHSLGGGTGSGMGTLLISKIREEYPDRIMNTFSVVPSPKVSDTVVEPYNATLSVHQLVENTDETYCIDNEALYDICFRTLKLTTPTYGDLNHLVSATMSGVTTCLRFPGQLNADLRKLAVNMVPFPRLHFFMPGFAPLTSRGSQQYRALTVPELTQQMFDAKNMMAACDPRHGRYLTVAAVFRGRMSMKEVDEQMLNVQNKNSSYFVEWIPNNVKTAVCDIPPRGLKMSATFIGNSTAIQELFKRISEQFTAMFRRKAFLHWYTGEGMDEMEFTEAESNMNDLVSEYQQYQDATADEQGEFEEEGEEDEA
Description: Materials: Human KIF18A (amino acid sequence 1-417) was obtained from Viva Biotech (Shanghai) Ltd., and the ADP-Glo™ protein kinase kit was acquired from Promega, USA. Tubulin was sourced from Cytoskeleton, USA, while a 384-well assay plate and the Envision multifunctional microplate reader were obtained from PerkinElmer, USA.
Enzyme activity detection: The compound powder in DMSO was firstly dissolved to prepare a 10 mM stock solution. Next, gradient dilutions were prepared in the microplate to achieve final concentrations of […]. Sequentially, 2.5 μL of tubulin (60 μg/mL), the compound, ATP (25 μM), and KIF18A protein (2.5 nM) were added to each well, and the reaction was incubated at ambient temperature for 120 minutes. After the reaction, 10 μL of ADP-Glo™ reagent was added to each well and incubated at ambient temperature for 30 minutes. Subsequently, 20 μL of detection reagent was added to each well and incubated for an additional 30 minutes in the dark. Finally, chemiluminescence detection was performed using the PerkinElmer Envision multifunctional microplate reader.

Row | Structure (SMILES) | IC50 [1] [nM] | IC50 [2] [nM]
1 | Cc1cc(-c2cn(-c3ccc(NS(=O)(=O)CCO)cc3N3CCC4(CC3)CC4)nn2)nc(C2COCCO2)n1 (stereo not shown) [Example 40, N-(4-(4-(2-(1,4-dioxan-2-yl)-6-methylpyrimidin-4-yl)-1H-1,2,3-triazol-1-yl)-3-(6-azaspiro[2.5]octan-6-yl)phenyl)-2-hydroxyethane-1-sulfonamide] | 411 | > 3000
2 | O=S(=O)(CCO)Nc1ccc(-n2cc(-c3cc(OCC4CCOC4)nc(N4CCC(F)(F)CC4)n3)nn2)c(N2CCC3(CC2)CC3)c1 (stereo not shown) [Example 97, N-(3-(6-azaspiro[2.5]octan-6-yl)-4-{4-[2-(4,4-difluoropiperidin-1-yl)-6-[(oxolan-3-yl)methoxy]pyrimidin-4-yl]-1-1,2,3-triazol-1-yl}phenyl)-2-hydroxyethane-1-sulfonamide] | – | 234
3 | Cc1ccc2cc(-c3cn(-c4ccc(NS(=O)(=O)CCO)cc4N4CCC5(CC4)CC5)nn3)c(F)c(N3CCC(F)(F)CC3)c2n1 [Example 75, N-(3-{6-azaspiro[2.5]octan-6-yl}-4-{4-[8-(4,4-difluoropiperidin-1-yl)-7-fluoro-2-methylquinolin-6-yl]-1H-1,2,3-triazol-1-yl}phenyl)-2-hydroxyethane-1-sulfonamide] | 300 | > 3000
4 | Cc1cc(-c2cc(-c3ccc(NS(=O)(=O)CCO)cc3N3CCC4(CC3)CC4)on2)nc(N2CCC(F)(F)CC2)n1 [Example 5, N-(4-(3-(2-(4,4-difluoropiperidin-1-yl)-6-methylpyrimidin-4-yl)isoxazol-5-yl)-3-(6-azaspiro[2.5]octan-6-yl)phenyl)-2-hydroxyethane-1-sulfonamide] | 389 | 1050
5 | Cc1cc2nc(-c3ccc(NS(=O)(=O)CCO)cc3N3CCC4(CC3)CC4)[nH]c2c(N2CCC(F)(F)CC2)n1 [Example 106, N-(4-(4-(4,4-difluoropiperidin-1-yl)-6-methyl-3H-imidazo[4,5-c]pyridin-2-yl)-3-(6-azaspiro[2.5]octan-6-yl)phenyl)-2-hydroxyethane-1-sulfonamide] | – | 210
6 | Cc1cc(-c2cn(-c3ccc(NS(=O)(=O)CCO)cc3N3CCC4(CC3)CC4)nn2)nc(N2CC3CC2CO3)n1 (stereo not shown) [Example 47, N-(4-(4-(2-(2-oxa-5-azabicyclo[2.2.1]heptan-5-yl)-6-methylpyrimidin-4-yl)-1H-1,2,3-triazol-1-yl)-3-(6-azaspiro[2.5]octan-6-yl)phenyl)-2-hydroxyethane-1-sulfonamide] | 37 | 64
7 | COc1cc(-c2nnc(-c3ccc(NS(=O)(=O)C(C)CO)cc3N3CCC4(CC3)CC4)o2)cc(N2CCC(F)(F)CC2)n1 (stereo not shown) [Example 102, N-(4-(5-(2-(4,4-difluoropiperidin-1-yl)-6-methoxypyridin-4-yl)-1,3,4-oxadiazol-2-yl)-3-(6-azaspiro[2.5]octan-6-yl)phenyl)-1-hydroxypropane-2-sulfonamide] | – | 60
8 | COc1cc(-c2nnc(-c3ccc(NS(=O)(=O)C(C)(C)CO)cc3N3CCC4(CC3)CC4)o2)cc(N2CCC(F)(F)CC2)n1 [Example 105, N-(4-(5-(2-(4,4-difluoropiperidin-1-yl)-6-methoxypyridin-4-yl)-1,3,4-oxadiazol-2-yl)-3-(6-azaspiro[2.5]octan-6-yl)phenyl)-1-hydroxy-2-methylpropane-2-sulfonamide] | – | 62
9 | C[C@H](CO)S(=O)(=O)Nc1ccc(-n2cc(-c3cc(N4CCC(F)(F)CC4)c4ncccc4c3)nn2)c(N2CCC3(CC2)CC3)c1 [Example 99, (2R)—N-(3-(6-azaspiro[2.5]octan-6-yl)-4-{4-[8-(4,4-difluoropiperidin-1-yl)quinolin-6-yl]-1H-1,2,3-triazol-1-yl}phenyl)-1-hydroxypropane-2-sulfonamide] | – | 214
10 | O=S(=O)(CCO)Nc1ccc(-n2cc(-c3cc(OC4CCOC4)nc(N4CCC(F)(F)CC4)n3)nn2)c(N2CCC3(CC2)CC3)c1 (stereo not shown) [Example 96, N-(3-{6-azaspiro[2.5]octan-6-yl}-4-{4-[2-(4,4-difluoropiperidin-1-yl)-6-(oxolan-3-yloxy)pyrirmidin-4-yl]-1H-1,2,3-triazol-1-yl}phenyl)-2-hydroxyethane-1-sulfonamide] | – | 117
11 | O=S(=O)(CCO)Nc1ccc(-n2cc(-c3cc(OCCO)nc(N4CCC(F)(F)CC4)n3)nn2)c(N2CCC3(CC2)CC3)c1 [Example 95, N-(3-{6-azaspiro[2.5]octan-6-yl}-4-{4-[2-(4,4-difluoropiperidin-1-yl)-6-(2-hydroxyethoxy)pyrimidin-4-yl]-1H-1,2,3-triazol-1-yl}phenyl)-2-hydroxyethane-1-sulfonamide] | 7 | 73
12 | Cc1cc(-c2nnc(-c3ccc(NS(=O)(=O)C(C)(C)CO)cc3N3CCC4(CC3)CC4)o2)cc(N2CCC(F)(F)CC2)n1 [Example 104, N-(4-(5-(2-(4,4-difluoropiperidin-1-yl)-6-methylpyridin-4-yl)-1,3,4-oxadiazol-2-yl)-3-(6-azaspiro[2.5]octan-6-yl)phenyl)-1-hydroxy-2-methylpropane-2-sulfonamide] | – | 83
13 | C[C@@H](CO)S(=O)(=O)Nc1ccc(-n2cc(-c3cc(N4CCC(F)(F)CC4)c4ncccc4c3)nn2)c(N2CCC3(CC2)CC3)c1 [Example 100, (2S)—N-(3-{6-azaspiro[2.5]octan-6-yl}-4-{4-[8-(4,4-difluoropiperidin-1-yl)quinolin-6-yl]-1H-1,2,3-triazol-1-yl}phenyl)-1-hydroxypropane-2-sulfonamide] | – | 187
14 | Cc1cc(-c2cn(-c3ccc(NS(=O)(=O)CCO)cc3N3CCC4(CC3)CC4)nn2)nc(C2=COCCO2)n1 [Example 38, N-(4-(4-(2-(5,6-dihydro-1,4-dioxin-2-yl)-6-methylpyrimidin-4-yl)-1H-1,2,3-triazol-1-yl)-3-(6-azaspiro[2.5]octan-6-yl)phenyl)-2-hydroxyethane-1-sulfonamide] | 424 | 452
15 | CCC(CO)S(=O)(=O)Nc1ccc(-n2cc(-c3cc(C)nc(N4CCC(F)(F)CC4)n3)nn2)c(N2CCC3(CC2)CC3)c1 (stereo not shown) [Example 98, N-(3-{6-azaspiro[2.5]octan-6-yl}-4-{4-[2-(4,4-difluoropiperidin-1-yl)-6-methylpyrimidin-4-yl]-1H-1,2,3-triazol-1-yl}phenyl)-1-hydroxybutane-2-sulfonamide] | – | 154
16 | CC(C)(CO)S(=O)(=O)Nc1ccc(-n2cc(-c3cc(N4CCC(F)(F)CC4)c4ncccc4c3)nn2)c(N2CCC3(CC2)CC3)c1 [Example 101, N-(4-(4-(8-(4,4-difluoropiperidin-1-yl)quinolin-6-yl)-1H-1,2,3-triazol-1-yl)-3-(6-azaspiro[2.5]octan-6-yl)phenyl)-1-hydroxy-2-methylpropane-2-sulfonamide] | – | 320
17 | Cc1cc(-c2cc(-c3ccc(NS(=O)(=O)CCO)cc3N3CCC4(CC3)CC4)n[nH]2)nc(N2CCC(F)(F)CC2)n1 [Example 6, N-(4-(5-(2-(4,4-difluoropiperidin-1-yl)-6-methylpyrimidin-4-yl)-1H-pyrazol-3-yl)-3-(6-azaspiro[2.5]octan-6-yl)phenyl)-2-hydroxyethane-1-sulfonamide] | 257 | 1090
18 | Cc1cc(-c2nnc(-c3ccc(NS(=O)(=O)C(C)CO)cc3N3CCC4(CC3)CC4)o2)cc(N2CCC(F)(F)CC2)n1 (stereo not shown) [Example 103, N-(4-(5-(2-(4,4-difluoropiperidin-1-yl)-6-methylpyridin-4-yl)-1,3,4-oxadiazol-2-yl)-3-(6-azaspiro[2.5]octan-6-yl)phenyl)-1-hydroxypropane-2-sulfonamide] | – | 73
